# *1 amine or outer side, *2 acyl side, *3 side chain or, on linkers, in order; H or OH if unused. Where a SMILES comes first, the peptide text is derived from it. [ ]: non-standard residue; d: D form. Glyψ(E-CHCH)Leu = CC(C)C[C@H](/C=C/CN[*:1])C(=O)[*:2]; Glyψ(CH2S)Leu = CC(C)C[C@H](SCCN[*:1])C(=O)[*:2]; Arg(Me) = CNC(=N)NCCC[C@H](N)C(=O)O; Dap(CONH2) = NC(=O)NC[C@H](N)C(=O)O; Ala(cPr) = N[C@@H](CC1CC1)C(=O)O; Hyp = O=C(O)[C@@H]1C[C@@H](O)CN1; tBuAla = CC(C)(C)C[C@H](N)C(=O)O; Cha = N[C@@H](CC1CCCCC1)C(=O)O; Nle = CCCC[C@H](N)C(=O)O; Nva = CCC[C@H](N)C(=O)O
# Tested on: metastin receptors
# Assay: Measurement of agonist activity by assaying changes in intracellular calcium ion level (FLIPR, Fluo-4 NW)
# Format: cell-based, human
# Settings: specific activity of the EC50 of a test compound based on the EC50 of Metastin (45-54), metastin receptor expression CHO cells
# How it was run: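 CHO/dhfr⁻ cells stably expressing human or rat metastin receptor, seeded 3×10^4/well for 24 h, loaded with Fluo-4 NW 30 min at 37 °C in HBSS with 0.1% BSA, 20 mM HEPES pH 7.4 and 1 mM probenecid. Compound-stimulated intracellular calcium change read on FLIPR.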
row,Compound,Specific Activity
1,"CNC(=N)NCCC[C@H](NC(=O)[C@@H](/C=C/CNC(=O)[C@H](CC1CCCCC1)NC(=O)[C@@H](NC(=O)[C@H](CCC(=O)O)NC(=O)[C@@H]1C[C@@H](O)CN1C(=O)[C@@H](Cc1ccc(O)cc1)NC(C)=O)[C@@H](C)O)CC(C)C)C(=O)N[C@@H](Cc1c[nH]c2ccccc12)C(N)=O [Compound No. 915, des(1)-Ac-[D-Tyr2,Hyp3,Glu4,Thr5,Cha6,Gly7Ψ((E)CH═CH)Leu8,Arg(Me)9,Trp10]MS10] (Ac-[dY][Hyp]ET[Cha][Glyψ(E-CHCH)Leu][Arg(Me)]W-NH2)",4.6
2,"CNC(=N)NCCC[C@H](NC(=O)[C@H](CC1CC1)NC(=O)CNC(=O)[C@H](Cc1ccccc1)NC(=O)[C@@H](NC(=O)[C@H](CC(N)=O)NC(=O)[C@@H]1C[C@@H](O)CN1C(=O)[C@@H](Cc1ccc(O)cc1)NC(C)=O)[C@@H](C)O)C(=O)N[C@@H](Cc1c[nH]c2ccccc12)C(N)=O [Compound No. 916, des(1)-Ac-[D-Tyr2,Hyp3,Thr5,Ala(cPr)8,Arg(Me)9,Trp10]MS10] (Ac-[dY][Hyp]NTFG[Ala(cPr)][Arg(Me)]W-NH2)",0.8
3,"CNC(=N)NCCC[C@H](NC(=O)[C@H](COC)NC(=O)CNC(=O)[C@H](Cc1ccccc1)NC(=O)[C@@H](NC(=O)[C@H](CC(N)=O)NC(=O)[C@@H]1C[C@@H](O)CN1C(=O)[C@@H](Cc1ccc(O)cc1)NC(C)=O)[C@@H](C)O)C(=O)N[C@@H](Cc1c[nH]c2ccccc12)C(N)=O [Compound No. 917, des(1)-Ac-[D-Tyr2,Hyp3,Thr5,Ser(Me)8,Arg(Me)9,Trp10]MS10] (Ac-[dY][Hyp]NTFGS(Me)[Arg(Me)]W-NH2)",0.8
4,"CCC[C@H](NC(=O)CNC(=O)[C@H](Cc1ccccc1)NC(=O)[C@@H](NC(=O)[C@H](CC(N)=O)NC(=O)[C@@H]1C[C@@H](O)CN1C(=O)[C@@H](Cc1ccc(O)cc1)NC(C)=O)[C@@H](C)O)C(=O)N[C@@H](CCCNC(=N)NC)C(=O)N[C@@H](Cc1c[nH]c2ccccc12)C(N)=O [Compound No. 918, des(1)-Ac-[D-Tyr2,Hyp3,Thr5,Nva8,Arg(Me)9,Trp10]MS10] (Ac-[dY][Hyp]NTFG[Nva][Arg(Me)]W-NH2)",0.7
5,"CNC(=N)NCCC[C@H](NC(=O)[C@H](COC)NC(=O)CNC(=O)[C@H](CC1CCCCC1)NC(=O)[C@@H](NC(=O)[C@H](CC(N)=O)NC(=O)[C@@H]1C[C@@H](O)CN1C(=O)[C@@H](Cc1ccc(O)cc1)NC(C)=O)[C@@H](C)O)C(=O)N[C@@H](Cc1c[nH]c2ccccc12)C(N)=O [Compound No. 920, des(1)-Ac-[D-Tyr2,Hyp3,Thr5,Cha6,Ser(Me)8,Arg(Me)9,Trp10]MS10] (Ac-[dY][Hyp]NT[Cha]GS(Me)[Arg(Me)]W-NH2)",0.5
6,"CCC[C@H](NC(=O)CNC(=O)[C@H](CC1CCCCC1)NC(=O)[C@@H](NC(=O)[C@H](CC(N)=O)NC(=O)[C@@H]1C[C@@H](O)CN1C(=O)[C@@H](Cc1ccc(O)cc1)NC(C)=O)[C@@H](C)O)C(=O)N[C@@H](CCCNC(=N)NC)C(=O)N[C@@H](Cc1c[nH]c2ccccc12)C(N)=O [Compound No. 921, des(1)-Ac-[D-Tyr2,Hyp3,Thr5,Cha6,Nva8,Arg(Me)9,Trp10]MS10] (Ac-[dY][Hyp]NT[Cha]G[Nva][Arg(Me)]W-NH2)",0.5
7,"CNC(=N)NCCC[C@H](NC(=O)[C@H](COC)NC(=O)CNC(=O)[C@H](CC1CCCCC1)NC(=O)[C@@H](NC(=O)[C@H](CC(N)=O)NC(=O)[C@H](CCC(=O)O)NC(=O)[C@@H](Cc1ccc(O)cc1)NC(C)=O)[C@@H](C)O)C(=O)N[C@@H](Cc1c[nH]c2ccccc12)C(N)=O [Compound No. 923, des(1)-Ac-[D-Tyr2,Glu3,Thr5,Cha6,Ser(Me)8,Arg(Me)9,Trp10]MS10] (Ac-[dY]ENT[Cha]GS(Me)[Arg(Me)]W-NH2)",0.5
8,"CCC[C@H](NC(=O)CNC(=O)[C@H](CC1CCCCC1)NC(=O)[C@@H](NC(=O)[C@H](CC(N)=O)NC(=O)[C@H](CCC(=O)O)NC(=O)[C@@H](Cc1ccc(O)cc1)NC(C)=O)[C@@H](C)O)C(=O)N[C@@H](CCCNC(=N)NC)C(=O)N[C@@H](Cc1c[nH]c2ccccc12)C(N)=O [Compound No. 924, des(1)-Ac-[D-Tyr2,Glu3,Thr5,Cha6,Nva8,Arg(Me)9,Trp10]MS10] (Ac-[dY]ENT[Cha]G[Nva][Arg(Me)]W-NH2)",0.4
9,"CC(=O)N[C@H](Cc1ccc(O)cc1)C(=O)N1C[C@H](O)C[C@H]1C(=O)N[C@@H](CC(N)=O)C(=O)N[C@H](C(=O)N[C@@H](Cc1ccccc1)C(=O)NC/C=C/[C@@H](CC(C)C)C(=O)N[C@@H](CCCNC(=N)N)C(=O)N[C@@H](Cc1c[nH]c2ccccc12)C(N)=O)[C@@H](C)O [Compound No. 925, des(1)-Ac-[D-Tyr2,Hyp3,Thr5,Gly7Ψ((E)CH═CH)Leu8,Trp10]MS10] (Ac-[dY][Hyp]NTF[Glyψ(E-CHCH)Leu]RW-NH2)",0.4
10,"CC(=O)N[C@H](Cc1ccc(O)cc1)C(=O)N1C[C@H](O)C[C@H]1C(=O)N[C@@H](CC(N)=O)C(=O)N[C@H](C(=O)N[C@@H](CC1CCCCC1)C(=O)NC/C=C/[C@@H](CC(C)C)C(=O)N[C@@H](CCCNC(=N)N)C(=O)N[C@@H](Cc1c[nH]c2ccccc12)C(N)=O)[C@@H](C)O [Compound No. 926, des(1)-Ac-[D-Tyr2,Hyp3,Thr5,Cha6,Gly7Ψ((E)CH═CH)Leu8,Trp10]MS10] (Ac-[dY][Hyp]NT[Cha][Glyψ(E-CHCH)Leu]RW-NH2)",0.6
11,"CC(=O)N[C@H](Cc1ccc(O)cc1)C(=O)N1C[C@H](O)C[C@H]1C(=O)N[C@@H](CNC(N)=O)C(=O)N[C@H](C(=O)N[C@@H](CC1CCCCC1)C(=O)NC/C=C/[C@@H](CC(C)C)C(=O)N[C@@H](CCCNC(=N)N)C(=O)N[C@@H](Cc1c[nH]c2ccccc12)C(N)=O)[C@@H](C)O [Compound No. 927, des(1)-Ac-[D-Tyr2,Hyp3,Alb4,Thr5,Cha6,Gly7Ψ((E)CH═CH)Leu8,Trp10]MS10] (Ac-[dY][Hyp][Dap(CONH2)]T[Cha][Glyψ(E-CHCH)Leu]RW-NH2)",0.5
12,"CNC(=N)NCCC[C@H](NC(=O)[C@H](CC(C)C)SCCNC(=O)[C@H](Cc1ccccc1)NC(=O)[C@@H](NC(=O)[C@H](CC(N)=O)NC(=O)[C@@H]1C[C@@H](O)CN1C(=O)[C@@H](Cc1ccc(O)cc1)NC(C)=O)[C@@H](C)O)C(=O)N[C@@H](Cc1c[nH]c2ccccc12)C(N)=O [Compound No. 929, des(1)-Ac-[D-Tyr2,Hyp3,Thr5,Gly7Ψ(CH2S)Leu8,Arg(Me)9,Trp10]MS10] (Ac-[dY][Hyp]NTF[Glyψ(CH2S)Leu][Arg(Me)]W-NH2)",1.2
13,"CNC(=N)NCCC[C@H](NC(=O)[C@H](CC(C)C)SCCNC(=O)[C@H](CC1CCCCC1)NC(=O)[C@@H](NC(=O)[C@H](CC(N)=O)NC(=O)[C@@H]1C[C@@H](O)CN1C(=O)[C@@H](Cc1ccc(O)cc1)NC(C)=O)[C@@H](C)O)C(=O)N[C@@H](Cc1c[nH]c2ccccc12)C(N)=O [Compound No. 931, des(1)-Ac-[D-Tyr2,Hyp3,Thr5,Cha6,Gly7Ψ(CH2S)Leu8,Arg(Me)9,Trp10]MS10] (Ac-[dY][Hyp]NT[Cha][Glyψ(CH2S)Leu][Arg(Me)]W-NH2)",1.7
14,"CCCC[C@H](NC(=O)CNC(=O)[C@H](CC1CCCCC1)NC(=O)[C@@H](NC(=O)[C@H](CC(N)=O)NC(=O)[C@@H]1C[C@@H](O)CN1C(=O)[C@@H](Cc1ccc(O)cc1)NC(C)=O)[C@@H](C)O)C(=O)N[C@@H](CCCNC(=N)NC)C(=O)N[C@@H](Cc1c[nH]c2ccccc12)C(N)=O [Compound No. 932, des(1)-Ac-[D-Tyr2,Hyp3,Thr5,Cha6,Nle8,Arg(Me)9,Trp10]MS10] (Ac-[dY][Hyp]NT[Cha]G[Nle][Arg(Me)]W-NH2)",0.6
15,"CNC(=N)NCCC[C@H](NC(=O)[C@H](CC(C)(C)C)NC(=O)CNC(=O)[C@H](CC1CCCCC1)NC(=O)[C@@H](NC(=O)[C@H](CC(N)=O)NC(=O)[C@@H]1C[C@@H](O)CN1C(=O)[C@@H](Cc1ccc(O)cc1)NC(C)=O)[C@@H](C)O)C(=O)N[C@@H](Cc1c[nH]c2ccccc12)C(N)=O [Compound No. 933, des(1)-Ac-[D-Tyr2,Hyp3,Thr5,Cha6,Leu(Me)8,Arg(Me)9,Trp10]MS10] (Ac-[dY][Hyp]NT[Cha]G[tBuAla][Arg(Me)]W-NH2)",1.4
16,"CNC(=N)NCCC[C@H](NC(=O)[C@H](CC1CCCCC1)NC(=O)CNC(=O)[C@H](CC1CCCCC1)NC(=O)[C@@H](NC(=O)[C@H](CC(N)=O)NC(=O)[C@@H]1C[C@@H](O)CN1C(=O)[C@@H](Cc1ccc(O)cc1)NC(C)=O)[C@@H](C)O)C(=O)N[C@@H](Cc1c[nH]c2ccccc12)C(N)=O [Compound No. 934, des(1)-Ac-[D-Tyr2,Hyp3,Thr5,Cha6,8,Arg(Me)9,Trp10]MS10] (Ac-[dY][Hyp]NT[Cha]G[Cha][Arg(Me)]W-NH2)",3.5
17,"CC(=O)N[C@H](Cc1ccc(O)cc1)C(=O)N1C[C@H](O)C[C@H]1C(=O)N[C@@H](CC(N)=O)C(=O)N[C@H](C(=O)N[C@@H](CC1CCCCC1)C(=O)NCC(=O)N[C@@H](CC1CC1)C(=O)N[C@@H](CCCNC(=N)N)C(=O)N[C@@H](Cc1c[nH]c2ccccc12)C(N)=O)[C@@H](C)O [Compound No. 940, des(1)-Ac-[D-Tyr2,Hyp3,Thr5,Cha6,Ala(cPr)8,Trp10]MS10] (Ac-[dY][Hyp]NT[Cha]G[Ala(cPr)]RW-NH2)",0.5
18,"CC(=O)N[C@H](Cc1ccc(O)cc1)C(=O)N[C@@H](CCC(=O)O)C(=O)N[C@@H](CC(N)=O)C(=O)N[C@H](C(=O)N[C@@H](CC1CCCCC1)C(=O)NCC(=O)N[C@@H](CC1CC1)C(=O)N[C@@H](CCCNC(=N)N)C(=O)N[C@@H](Cc1c[nH]c2ccccc12)C(N)=O)[C@@H](C)O [Compound No. 942, des(1)-Ac-[D-Tyr2,Glu3,Thr5,Cha6,Ala(cPr)8,Trp10]MS10] (Ac-[dY]ENT[Cha]G[Ala(cPr)]RW-NH2)",0.4

# Reference: patent US7786083B2, “Metastin derivatives and use thereof” (Takeda Pharmaceutical Company Limited, priority 2006, dated 2010)
